Results reported in patent US20260042764A1, “COMPOSITIONS AND METHODS FOR INHIBITION OF KRAS” (TheRas, Inc., priority 2022, published 2026).

What was measured:
[1] = target: T1, Avi-KRAS G12R (1-169) GppNHp/RAF1 RBD-3xFLAG (52-151) (Homo sapiens, UniProt P01116, G12R); assay: Raf1-KRAS G12R-GppNHP disruption HTRF assay (Biological Example 1); format: binding
T1 construct: Avi-KRAS G12R (1-169)
Method in brief: (§1)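 Compound disruption of KRAS-GppNHp/RAF1 RBD binding read by HTRF after two sequential 1 h room-temperature incubations (protein mix, then detection reagents), shaken at 700 rpm. Buffer Tris pH 7.5 with MgCl2, BSA, Tween and 10% DMSO; results given as percent activity relative to DMSO (100%).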

[2] = target: T2, Avi-KRAS WT (1-169) GppNHp/RAF1 RBD-3xFLAG (52-151) (Homo sapiens, UniProt P01116); assay: Raf1-KRAS WT-GppNHP disruption HTRF assay (Biological Example 1); format: binding
T2 construct: Avi-KRAS WT (1-169)
Method in brief: as §1

[3] = target: T3, Avi-KRAS G12D (2-169) GTP/RAF1 RBD-3xFLAG (51-131) (Homo sapiens, UniProt P01116, G12D); assay: Raf1-KRAS G12D-GTP disruption HTRF assay (Biological Example 3); format: binding; settings: KRAS G12D, GTP-loaded
T3 construct: Avi-KRAS G12D (2-169)
Method in brief: (§2)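 Each KRAS-GTP/RAF1 RBD complex at 50 nM, with 75 nM 3xFLAG-RAF1 RBD (51-131)-Avi, in 50 mM Tris pH 7.5, 100 mM NaCl, 5 mM MgCl2, 0.1% BSA, 0.01% Tween 20, 10% DMSO. Compounds titrated from 30 μM, 10-point 3x series; 1 h at room temperature with shaking. HTRF read, activity as percent of DMSO.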

[4] = target: T4, Avi-KRAS WT (2-169) GTP/RAF1 RBD-3xFLAG (51-131) (Homo sapiens, UniProt P01116); assay: Raf1-KRAS WT-GTP disruption HTRF assay (Biological Example 3); format: binding; settings: KRAS WT, GTP-loaded
T4 construct: Avi-KRAS WT (2-169)
Method in brief: as §2

[5] = test system: SW620 cells (KRAS G12V); assay: Cell-based pERK HTRF assay in SW620 cell (Biological Example 4)
Method in brief: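 SW620 seeded in RPMI/10% FBS, next day dosed 4 h (top 1 μM, half-log, 9 pts, 0.25% DMSO). Lysed, pERK by d2/Eu cryptate HTRF, 4–24 h RT, 615 nm read.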

[6] = KRAS G12R, GppNHp-loaded, class symbols
[7] = KRAS WT, GppNHp-loaded, class symbols
[8] = Homo sapiens, SW-620, SW620 (KRAS G12V) cells, pERK HTRF, class symbols
[9] = Homo sapiens, SW-620, SW620 (KRAS G12V) cells
[10] = KRAS G12R, GppNHp-loaded, Table 11
[11] = KRAS WT, GppNHp-loaded, Table 11
[12] = SW620 (KRAS G12V) cells, pERK HTRF
[13] = Homo sapiens, SW-620, SW620 (KRAS G12V) cells, pERK HTRF

T4 sequence (P01116 2-169 isoform P01116-2): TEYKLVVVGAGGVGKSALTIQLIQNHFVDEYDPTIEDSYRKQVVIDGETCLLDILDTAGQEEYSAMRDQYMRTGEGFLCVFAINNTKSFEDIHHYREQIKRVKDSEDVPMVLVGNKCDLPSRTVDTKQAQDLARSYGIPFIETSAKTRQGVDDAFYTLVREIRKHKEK
T2 sequence (P01116 1-169 isoform P01116-2): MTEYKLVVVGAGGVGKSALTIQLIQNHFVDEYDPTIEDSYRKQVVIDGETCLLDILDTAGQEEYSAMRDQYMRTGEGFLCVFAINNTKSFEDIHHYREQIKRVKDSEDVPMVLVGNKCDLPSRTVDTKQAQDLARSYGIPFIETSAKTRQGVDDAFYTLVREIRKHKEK
T3 sequence (P01116 2-169 isoform P01116-2 G12D): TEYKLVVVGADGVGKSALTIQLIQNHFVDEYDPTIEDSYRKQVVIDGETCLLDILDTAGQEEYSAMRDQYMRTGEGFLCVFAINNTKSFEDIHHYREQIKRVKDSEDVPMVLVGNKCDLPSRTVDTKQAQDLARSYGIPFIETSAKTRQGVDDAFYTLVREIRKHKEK
T1 sequence (P01116 1-169 isoform P01116-2 G12R): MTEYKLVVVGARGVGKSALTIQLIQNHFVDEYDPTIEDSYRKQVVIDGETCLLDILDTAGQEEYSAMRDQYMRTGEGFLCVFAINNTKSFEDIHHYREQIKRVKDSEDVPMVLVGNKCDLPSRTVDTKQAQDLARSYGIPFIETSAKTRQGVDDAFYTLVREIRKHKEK

Row | SMILES | IC50 [1, 6] | IC50 [2, 7] | IC50 [3] | IC50 [4] | IC50 [5, 8] | IC50 ([5]; SW620 (KRAS G12V) cells) | IC50 [5, 9] | IC50 [1, 10] | IC50 [2, 11] | IC50 [5, 12] | IC50 [5, 13] | IC50 ([1]; KRAS G12R-GppNHp/RAF1 RBD HTRF) | IC50 ([2]; KRAS WT-GppNHp/RAF1 RBD HTRF)
1 | CCN(c1nc(OC[C@@]23CCCN2C[C@H](F)C3)nc2c(F)c(-c3ccc(F)c4sc(N)c(C#N)c34)c(C(F)(F)F)cc12)[C@@H]1CC(=O)N(C2CC2)C1 (atropisomer, axis not shown) [Compound 703] | 1000 to 10000 nM | 100 to 1000 nM | 1000 to 10000 nM | 1000 to 10000 nM | < 100 nM | < 100 nM | – | – | – | – | – | – | –
2 | CCN(c1nc(OC[C@@]23CCCN2C[C@H](F)C3)nc2c(F)c(-c3ccc(F)c4sc(N)c(C#N)c34)c(C(F)(F)F)cc12)[C@H]1C[C@H](C)N(C(=O)OC)C1 (atropisomer, axis not shown) [Compound 704] | < 100 nM | < 100 nM | 100 to 1000 nM | 100 to 1000 nM | < 100 nM | – | < 100 nM | – | – | – | – | – | –
3 | CCN(c1nc(OC[C@@]23CCCN2C[C@H](F)C3)nc2c(F)c(-c3ccc(F)c4sc(N)c(C#N)c34)c(C(F)(F)F)cc12)[C@H]1CCN(C(=O)c2ccns2)C1 (atropisomer, axis not shown) [Compound 726] | < 100 nM | < 100 nM | 100 to 1000 nM | 100 to 1000 nM | < 100 nM | – | < 100 nM | – | – | – | – | – | –
4 | CCN(c1nc(OC[C@@]23CCCN2C[C@H](F)C3)nc2c(F)c(-c3ccc(F)c4sc(N)c(C#N)c34)c(C(F)(F)F)cc12)[C@H]1CCN(C(=O)N(C)C)[C@@H]1C (atropisomer, axis not shown) [Compound 749] | < 100 nM | < 100 nM | ≤ 100 nM | ≤ 100 nM | < 100 nM | – | < 100 nM | – | – | – | – | – | –
5 | CCN(c1nc(OC[C@@]23CCCN2C[C@H](F)C3)nc2c(F)c(-c3ccc(F)c4sc(N)c(C#N)c34)c(C(F)(F)F)cc12)[C@H]1C[C@@H](C)N(C(=O)[C@H]2CCO2)C1 (atropisomer, axis not shown) [Compound 752] | < 100 nM | 100 to 1000 nM | 100 to 1000 nM | 100 to 1000 nM | < 100 nM | – | < 100 nM | – | – | – | – | – | –
6 | CCN(c1nc(OC[C@@]23CCCN2C[C@H](F)C3)nc2c(F)c(-c3ccc(F)c4sc(N)c(C#N)c34)c(C(F)(F)F)cc12)[C@H]1C[C@H](C)N(C(=O)N2CC(OC)C2)C1 (atropisomer, axis not shown) [Compound 764] | < 100 nM | < 100 nM | ≤ 100 nM | 100 to 1000 nM | < 100 nM | – | < 100 nM | – | – | – | – | – | –
7 | CCN(c1nc(OC[C@@]23CCCN2C[C@H](F)C3)nc2c(F)c(-c3ccc(F)c4sc(N)c(C#N)c34)c(C(F)(F)F)cc12)[C@H]1C[C@H]2CCC(=O)N2C1 (atropisomer, axis not shown; (aR)) [Compound 573, 2-amino-4-((S)-4-(ethyl((2S,7aR)-5-oxohexahydro-1H-pyrrolizin-2-yl)amino)-8-fluoro-2-(((2R,7aS)-2-fluorotetrahydro-1H-pyrrolizin-7a(5H)-yl)methoxy)-6-(trifluoromethyl)quinazolin-7-yl)-7-fluorobenzo[b]thiophene-3-carbonitrile] | < 100 nM | < 100 nM | ≤ 100 nM | ≤ 100 nM | < 100 nM | – | < 100 nM | – | – | – | – | – | –
8 | Cc1c(C(=O)N(C)C)nn2c1CN(c1nc(OC[C@@]34CCCN3C[C@H](F)C4)nc3c(F)c(-c4ccc(F)c5sc(N)c(C#N)c45)c(C(F)(F)F)cc13)CC2 (atropisomer, axis not shown; (aS)) [Compound 590, 5-((S)-7-(2-amino-3-cyano-7-fluorobenzo[b]thiophen-4-yl)-8-fluoro-2-(((2R,7aS)-2-fluorotetrahydro-1H-pyrrolizin-7a(5H)-yl)methoxy)-6-(trifluoromethyl)quinazolin-4-yl)-N,N,3-trimethyl-4,5,6,7-tetrahydropyrazolo[1,5-a]pyrazine-2-carboxamide] | < 100 nM | < 100 nM | 100 to 1000 nM | 100 to 1000 nM | < 100 nM | < 100 nM | – | – | – | – | – | – | –
9 | CCN(c1nc(OC[C@@]23CCCN2C[C@H](F)C3)nc2c(F)c(-c3ccc(F)c4sc(N)c(C#N)c34)c(C(F)(F)F)cc12)[C@H]1CC(=O)N2CCC[C@@H]12 (atropisomer, axis not shown; (aS)) [Compound 697, 2-amino-4-((S)-4-(ethyl((1S,7aS)-3-oxohexahydro-1H-pyrrolizin-1-yl)amino)-8-fluoro-2-(((2R,7aS)-2-fluorotetrahydro-1H-pyrrolizin-7a(5H)-yl)methoxy)-6-(trifluoromethyl)quinazolin-7-yl)-7-fluorobenzo[b]thiophene-3-carbonitrile] | < 100 nM | < 100 nM | ≤ 100 nM | ≤ 100 nM | < 100 nM | – | < 100 nM | – | – | – | – | – | –
10 | CC(=O)N1CC[C@@H](N(C)c2nc(OC[C@@]34CCCN3C[C@H](F)C4)nc3c(F)c(-c4ccc(F)c5sc(N)c(C#N)c45)c(C(F)(F)F)cc23)[C@H]1C (single isomer, unassigned) [Compound 193] | – | – | 100 to 1000 nM | 100 to 1000 nM | – | – | < 100 nM | < 100 nM | < 100 nM | < 100 nM | – | – | –
11 | N#Cc1c(N)sc2c(F)ccc(-c3c(C(F)(F)F)cc4c(N5CCOCC5)nc(OC[C@@]56CCCN5C[C@H](F)C6)nc4c3F)c12 (single isomer, unassigned) [Compound 198] | – | – | 100 to 1000 nM | 100 to 1000 nM | – | – | < 100 nM | 100 to 1000 nM | 100 to 1000 nM | < 100 nM | – | – | –
12 | N#Cc1c(N)sc2c(F)ccc(-c3c(C(F)(F)F)cc4c(N5CC6CC(C5)O6)nc(OC[C@@]56CCCN5C[C@H](F)C6)nc4c3F)c12 (single isomer, unassigned) [Compound 275] | – | – | 100 to 1000 nM | 100 to 1000 nM | – | – | < 100 nM | 100 to 1000 nM | 100 to 1000 nM | – | < 100 nM | – | –
13 | N#Cc1c(N)sc2c(F)ccc(-c3c(C(F)(F)F)cc4c(N5C[C@H]6C[C@@H]5CO6)nc(OC[C@@]56CCCN5C[C@H](F)C6)nc4c3F)c12 (single isomer, unassigned) [Compound 287] | – | – | 100 to 1000 nM | 100 to 1000 nM | – | – | < 100 nM | – | – | – | < 100 nM | 100 to 1000 nM | 100 to 1000 nM
14 | CN(c1nc(OC[C@@]23CCCN2C[C@H](F)C3)nc2c(F)c(-c3ccc(F)c4sc(N)c(C#N)c34)c(C(F)(F)F)cc12)[C@H]1C[C@@H](O)C1 [Compound 19, 2-amino-7-fluoro-4-((S)-8-fluoro-2-(((2R,7aS)-2-fluorotetrahydro-1H-pyrrolizin-7a(5H)-yl)methoxy)-4-(((1s,3R)-3-hydroxycyclobutyl)(methyl)amino)-6-(trifluoromethyl)quinazolin-7-yl)benzo[b]thiophene-3-carbonitrile] | – | – | ≤ 100 nM | ≤ 100 nM | – | < 100 nM | – | < 100 nM | < 100 nM | < 100 nM | – | – | –
15 | N#Cc1c(N)sc2c(F)ccc(-c3c(C(F)(F)F)cc4c(N5CC6CC(C5)O6)nc(OC[C@@]56CCCN5C[C@H](F)C6)nc4c3F)c12 [Compound 145] | – | – | 100 to 1000 nM | 1000 to 10000 nM | – | – | < 100 nM | 100 to 1000 nM | 100 to 1000 nM | – | < 100 nM | – | –
